Laboratory results: PubChem BioAssay AID1963825 (Molecular Pharmacology Branch, DTP, NCI, 2024)

Assay: Anticancer human tumor 997537-175-T-J1-PDC patient-derived colon adenocarcinoma cell line growth inhibition [POLQ]
Conditions: 997537-175-T-J1-PDC complex spheroid viability, combination with POLQ inhibitors; for IC50: curve of first compound; for viability, T/C: stronger effect = lower value
Summary of the method: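 PDC + HUVEC + MSC complex spheroids; POLQ inhibitors ± partner drugs; top conc. at/near clinical Cmax, else 10 microM (SN-38 1 microM), half-log dilutions; 37 degrees C, 5% CO2.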

[1] = second compound 0.0316 µM, first compound 0.0316 µM
[2] = second compound 0.0316 µM, first compound 0.1 µM
[3] = second compound 0.0316 µM, first compound 0.316 µM
[4] = second compound 0.0316 µM, first compound 1 µM
[5] = second compound 0.1 µM, first compound 0.0316 µM
[6] = second compound 0.1 µM, first compound 0.1 µM
[7] = second compound 0.1 µM, first compound 0.316 µM
[8] = second compound 0.1 µM, first compound 1 µM
[9] = second compound 0.316 µM, first compound 0.0316 µM
[10] = second compound 0.316 µM, first compound 0.1 µM
[11] = second compound 0.316 µM, first compound 0.316 µM
[12] = second compound 0.316 µM, first compound 1 µM
[13] = second compound 1 µM, first compound 0.0316 µM
[14] = second compound 1 µM, first compound 0.1 µM
[15] = second compound 1 µM, first compound 0.316 µM
[16] = second compound 1 µM, first compound 1 µM
[17] = second compound 3.16 µM, first compound 0.0316 µM
[18] = second compound 3.16 µM, first compound 0.1 µM
[19] = second compound 3.16 µM, first compound 0.316 µM
[20] = second compound 3.16 µM, first compound 1 µM
[21] = second compound 10 µM, first compound 0.0316 µM
[22] = second compound 10 µM, first compound 0.1 µM
[23] = second compound 10 µM, first compound 0.316 µM
[24] = second compound 10 µM, first compound 1 µM
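Also: luminescence signal used as a surrogate for viable cells; spheroids exposed to drugs for seven days before readout.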

Q: For `C=CCn1c(=O)c2cnc(Nc3ccc(N4CCN(C)CC4)cc3)nc2n1-c1cccc(C(C)(C)O)n1` + COC1C(OC(N)=O)C(O)C(Oc2ccc3c(O)c(NC(=O)c4ccc(O)c(CC=C(C)C)c4)c(=O)oc3c2C)OC1(C)C, which IC50 (second compound 0.0316 µM) is on record?
A: > 1 µM

Q: And the IC50 (second compound 0.1 µM)?
A: > 1 µM

Q: And the IC50 (second compound 0.316 µM)?
A: > 1 µM

Q: What about the IC50 (second compound 1 µM) of the same compound?
A: > 1 µM

Q: And the IC50 (second compound 3.16 µM)?
A: > 1 µM

Q: What about the IC50 (second compound 10 µM) of the same compound?
A: > 1 µM

Q: And the viability, T/C (second compound 0.0316 µM, first compound 0.00316 µM)?
A: 92.8%

Q: What about the viability, T/C (second compound 0.0316 µM, first compound 0.01 µM) of the same compound?
A: 102%

Q: And the viability, T/C [1]?
A: 105%

Q: What about the viability, T/C [2] of the same compound?
A: 92.1%

Q: What about the viability, T/C [3] of the same compound?
A: 105%

Q: And the viability, T/C [4]?
A: 71%

Q: What about the viability, T/C (second compound 0.1 µM, first compound 0.00316 µM) of the same compound?
A: 115%

Q: What about the viability, T/C (second compound 0.1 µM, first compound 0.01 µM) of the same compound?
A: 106%

Q: And the viability, T/C [5]?
A: 91.9%

Q: And the viability, T/C [6]?
A: 92.2%

Q: And the viability, T/C [7]?
A: 81.7%

Q: What about the viability, T/C [8] of the same compound?
A: 66.2%

Q: And the viability, T/C (second compound 0.316 µM, first compound 0.00316 µM)?
A: 88.5%

Q: What about the viability, T/C (second compound 0.316 µM, first compound 0.01 µM) of the same compound?
A: 101%

Q: And the viability, T/C [9]?
A: 103%

Q: What about the viability, T/C [10] of the same compound?
A: 103%

Q: What about the viability, T/C [11] of the same compound?
A: 92.5%

Q: What about the viability, T/C [12] of the same compound?
A: 56.5%

Q: What about the viability, T/C (second compound 1 µM, first compound 0.00316 µM) of the same compound?
A: 103%

Q: And the viability, T/C (second compound 1 µM, first compound 0.01 µM)?
A: 98.6%

Q: And the viability, T/C [13]?
A: 98.2%

Q: And the viability, T/C [14]?
A: 90.3%

Q: What about the viability, T/C [15] of the same compound?
A: 102%

Q: And the viability, T/C [16]?
A: 87.8%

Q: What about the viability, T/C (second compound 3.16 µM, first compound 0.00316 µM) of the same compound?
A: 115%

Q: What about the viability, T/C (second compound 3.16 µM, first compound 0.01 µM) of the same compound?
A: 93.9%

Q: And the viability, T/C [17]?
A: 96.6%

Q: What about the viability, T/C [18] of the same compound?
A: 99.1%

Q: What about the viability, T/C [19] of the same compound?
A: 90.2%

Q: And the viability, T/C [20]?
A: 64.1%

Q: What about the viability, T/C (second compound 10 µM, first compound 0.00316 µM) of the same compound?
A: 98%

Q: And the viability, T/C (second compound 10 µM, first compound 0.01 µM)?
A: 82.5%

Q: And the viability, T/C [21]?
A: 93.3%

Q: And the viability, T/C [22]?
A: 81.4%

Q: And the viability, T/C [23]?
A: 78.5%

Q: And the viability, T/C [24]?
A: 56.4%

Q: Which results are given for `O=C(c1cc(Cc2n[nH]c(=O)c3ccccc23)ccc1F)N1CCN(C(=O)C2CC2)CC1` + COC1C(OC(N)=O)C(O)C(Oc2ccc3c(O)c(NC(=O)c4ccc(O)c(CC=C(C)C)c4)c(=O)oc3c2C)OC1(C)C?
A: IC50 (second compound 0.0316 µM): > 10 µM; IC50 (second compound 0.1 µM): > 10 µM; IC50 (second compound 0.316 µM): > 10 µM; IC50 (second compound 1 µM): > 10 µM; IC50 (second compound 3.16 µM): > 10 µM; IC50 (second compound 10 µM): > 10 µM; viability, T/C [1]: 98.2%; viability, T/C [2]: 99.8%; viability, T/C [3]: 99.1%; viability, T/C [4]: 88.3%; viability, T/C (second compound 0.0316 µM, first compound 3.16 µM): 93%; viability, T/C (second compound 0.0316 µM, first compound 10 µM): 101%; viability, T/C [5]: 73.7%; viability, T/C [6]: 91.7%; viability, T/C [7]: 101%; viability, T/C [8]: 106%; viability, T/C (second compound 0.1 µM, first compound 3.16 µM): 99%; viability, T/C (second compound 0.1 µM, first compound 10 µM): 101%; viability, T/C [9]: 105%; viability, T/C [10]: 112%; viability, T/C [11]: 98.9%; viability, T/C [12]: 96.8%; viability, T/C (second compound 0.316 µM, first compound 3.16 µM): 100%; viability, T/C (second compound 0.316 µM, first compound 10 µM): 107%; viability, T/C [13]: 100%; viability, T/C [14]: 98%; viability, T/C [15]: 110%; viability, T/C [16]: 92.7%; viability, T/C (second compound 1 µM, first compound 3.16 µM): 77.1%; viability, T/C (second compound 1 µM, first compound 10 µM): 96.3%; viability, T/C [17]: 101%; viability, T/C [18]: 95.1%; viability, T/C [19]: 94.7%; viability, T/C [20]: 86%; viability, T/C (second compound 3.16 µM, first compound 3.16 µM): 95.8%; viability, T/C (second compound 3.16 µM, first compound 10 µM): 96.9%; viability, T/C [21]: 102%; viability, T/C [22]: 78%; viability, T/C [23]: 104%; viability, T/C [24]: 98.5%; viability, T/C (second compound 10 µM, first compound 3.16 µM): 91.7%; viability, T/C (second compound 10 µM, first compound 10 µM): 107%
